Assay results reported in patent US6512000B1, “Aminocarbonyl-substituted benzimidazoles having tryptase-inhibitory activity” (Boehringer Ingelheim Pharma KG, priority 1999, dated 2003).

Biological target: T1, rh beta tryptase (Homo sapiens, UniProt P20231)
T1 construct: purchased Promega
Experiment: Tryptase inhibition test (cleavage of N-p-tosyl-Gly-Pro-Lys-para-nitroaniline, p-nitroaniline measured at 405 nm)
Assay type: biochemical
Conditions: pH 7.4, 37° C.; for inhibition at 10 µM / % Inhibition (10 μM): inhibition of rh beta tryptase at 10 μM test substance, substrate N-p-tosyl-Gly-Pro-Lys-para-nitroaniline 0.6 mM, 5 minutes; for IC50: concentration at which 50% of the tryptase enzyme activity is inhibited, substrate 0.6 mM
How it was run: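 Screening at 10 μM gives percent inhibition, with IC50 derived for compounds above 70% inhibition. Enzyme: rh beta tryptase, 0.91 U/ml, pH 7.4 Tris HCl (100 mM), 5 mM Ca, 100 mg/ml heparin. After 5 min compound pre-incubation, 0.6 mM pNA substrate cleaved 5 min at 37 °C, monitored at 405 nm.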

T1 sequence (P20231 31-275): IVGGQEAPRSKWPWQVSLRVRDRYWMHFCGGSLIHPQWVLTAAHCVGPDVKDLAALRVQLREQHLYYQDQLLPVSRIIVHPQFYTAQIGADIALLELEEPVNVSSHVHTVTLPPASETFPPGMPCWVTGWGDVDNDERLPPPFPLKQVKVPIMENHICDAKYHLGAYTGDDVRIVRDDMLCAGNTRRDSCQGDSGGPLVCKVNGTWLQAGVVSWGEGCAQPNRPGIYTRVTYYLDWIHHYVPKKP

With `CCCCN(CCN)C(=O)c1ccc2c(c1)nc(CCc1ccc(C(=N)N)cc1)n2CCc1ccccc1` [Example 283, 2-[2-(4-amidinophenyl)ethyl)-1-(2-phenylethyl)-benzimidazol-5-yl-carboxylic acid-N-(2-aminoethyl)-N-n-butyl-amide] as the compound, how does the inhibition at 10 µM read?
The inhibition at 10 µM was 59%.

How did the inhibition at 10 µM turn out when `CCCCN(CCN)C(=O)c1ccc2c(c1)nc(CCc1ccc(C(=N)N)cc1)n2CCc1ccc(Cl)cc1` [Example 284, 2-[2-(4-amidinophenyl)ethyl]-1-[2-(4-chlorophenyl)ethyl]-benzimidazol-5-yl-carboxylic acid-N-(2-aminoethyl)-N-n-butyl-amide] was run?
The inhibition at 10 µM was 55%.

With `CCCCN(CCN)C(=O)c1ccc2c(c1)nc(CCc1ccc(C(=N)N)cc1)n2CCCN1CCN(c2ccccc2C)CC1` [Example 288, 2-[2-(4-amidinophenyl)ethyl]-1-{3-[4-(2-methylphenyl)-piperazin-1-yl]-propyl}-benzimidazol-5-yl-carboxylic acid-N-(2-aminoethyl)-N-n-butyl-amide] as the compound, how does the inhibition at 10 µM read?
The inhibition at 10 µM was 65%.

How did the inhibition at 10 µM turn out when `CCCCN(CCN)C(=O)c1ccc2c(c1)nc(CCc1ccc(C(=N)N)cc1)n2CC1CCCO1` (centres unmarked) [Example 290, 2-[2-(4-amidinophenyl)ethyl]-1-(tetrahydrofuran-2-yl-methyl)-benzimidazol-5-yl-carboxylic acid-N-(2-aminoethyl)-N-n-butyl-amide] was run?
Its inhibition at 10 µM is 70%.

For `CCCCN(CCN)C(=O)c1ccc2c(c1)nc(CCc1ccc(C(=N)N)cc1)n2Cc1cccs1` [Example 291, 2-[2-(4-amidinophenyl)ethyl]-1-(2-thiophenyl-methyl)-benzimidazol-5-ylcarboxylic acid-N-(2-aminoethyl)-N-n-butyl-amide], which inhibition at 10 µM is on record?
The inhibition at 10 µM was 75%.

`CCOCCCn1c(CCc2ccc(C(=N)N)cc2)nc2cc(C(=O)N(CCN)Cc3ccccc3)ccc21` [Example 294, 2-[2-(4-amidinophenyl)ethyl]-1-(3-ethoxypropyl)-benzimidazol-5-yl-carboxylic acid-N-(2-aminoethyl)-N-benzyl-amide] was tested. Which IC50 did it give?
Its IC50 is 0.35 µM.

What about the inhibition at 10 µM of the same compound?
The inhibition at 10 µM was 69%.

How did the inhibition at 10 µM turn out when `CCCCN(CCCC)CCCn1c(CCc2ccc(C(=N)N)cc2)nc2cc(C(=O)N(CCN)Cc3ccccc3)ccc21` [Example 295, 2-[2-(4-amidinophenyl)ethyl]-1-(3-di-n-butylaminopropyl)-benzimidazol-5-yl-carboxylic acid-N-(2-aminoethyl)-N-benzyl-amide] was run?
The inhibition at 10 µM was 55%.

`N=C(N)c1ccc(CCc2nc3cc(C(=O)N(CCN)Cc4ccccc4)ccc3n2CCCNC(=O)Cc2ccccc2)cc1` [Example 296, 2-[2-(4-amidinophenyl)ethyl]-1-[3-(benzylcarbonylamino)-propyl]-benzimidazol-5-yl-carboxylie acid-N-(2-aminoethyl)-N-benzyl-amide] was tested. Which “% Inhibition (10 μM)” value did it give?
The value was 51%.

`N=C(N)c1ccc(CCc2nc3cc(C(=O)N(CCN)Cc4ccccc4)ccc3n2CC2CC2)cc1` [Example 298, 2-[2-(4-amidinophenyl)ethyl]-1-cyclopropylmethyl-benzimidazol-5-yl-carboxylic acid-N-(2-aminoethyl)-N-benzyl-amide] was tested. Which inhibition at 10 µM did it give?
Its inhibition at 10 µM is 57%.

Which inhibition at 10 µM does the source give for `Cc1ccccc1N1CCN(CCCn2c(CCc3ccc(C(=N)N)cc3)nc3cc(C(=O)N(CCN)Cc4ccccc4)ccc32)CC1` [Example 304, 2-[2-(4-amidinophenyl)ethyl]-1-{3-[4-(2-methylphenyl)-piperazin-1-yl]-propyl}-benzimidazol-5-yl-carboxylic acid-N-(2-aminoethyl)-N-benzyl-amide] here?
The inhibition at 10 µM was 51%.

`N=C(N)c1ccc(CCc2nc3cc(C(=O)N(CCN)Cc4ccccc4)ccc3n2CC2CCCO2)cc1` (centres unmarked) [Example 306, 2-[2-(4-amidinophenyl)ethyl]-1-(tetrahydrofuran-2-yl-methyl)-benzimidazol-5-yl-carboxylic acid-N-(2-aminoethyl)-N-benzyl-amide] was tested. Which inhibition at 10 µM did it give?
The inhibition at 10 µM was 62%.

`N=C(N)c1ccc(CCc2nc3cc(C(=O)N(CCN)Cc4ccccc4)ccc3n2Cc2cccs2)cc1` [Example 307, 2-[2-(4-amidinophenyl)ethyl]-1-(2-thiophenyl-methyl)-benzimidazol-5-yl-carboxylic acid-N-(2-aminoethyl)-N-benzyl-amide] was tested. Which inhibition at 10 µM did it give?
The inhibition at 10 µM was 57%.

For `CCOCCCn1c(CCc2ccc(C(=N)N)cc2)nc2cc(C(=O)N(CCN)c3ccccn3)ccc21` [Example 310, 2-[2-(4-amidinophenyl)ethyl]-1-(3-ethoxypropyl)-benzimidazol-5-yl-carboxylic acid-N-(2-aminoethyl)-N (2-pyridyl)-amide], which IC50 is on record?
Its IC50 is 0.253 µM.

What about the “% Inhibition (10 μM)” value of the same compound?
The value was 70%.

What does the source list for `CCOCCCn1c(CCc2ccc(C(=N)N)cc2)nc2cc(C(=O)N(CCN)CC3CCCCC3)ccc21` [Example 342, 2-[2-(4-amidinophenyl)ethyl]-1-(3-ethoxypropyl)-benzimidazol-5-yl-carboxylic acid-N-(2-aminoethyl)-N-cyclohexylmethyl-amide]?
IC50: 0.275 µM; inhibition at 10 µM: 75%

Which inhibition at 10 µM does the source give for `N=C(N)c1ccc(CCc2nc3cc(C(=O)N(CCN)CC4CCCCC4)ccc3n2CC2CC2)cc1` [Example 346, 2-[2-(4-amidinophenyl)ethyl]-1-cyclopropylmethyl-benzimidazol-5-yl-carboxylic acid-N-(2-aminoethyl)-N-cyclohexylmethyl-amide] here?
Its inhibition at 10 µM is 51%.

How did the inhibition at 10 µM turn out when `Cc1ccccc1N1CCN(CCCn2c(CCc3ccc(C(=N)N)cc3)nc3cc(C(=O)N(CCN)CC4CCCCC4)ccc32)CC1` [Example 352, 2-[2-(4-amidinophenyl)ethyl]-1-{3-[4-(2-methylphenyl)-piperazin-1-yl]-propyl}-benzimidazol-5-yl-carboxylic acid-N-(2-aminoethyl)-N-cyclohexylmethyl-amide] was run?
The inhibition at 10 µM was 51%.

For `N=C(N)c1ccc(CCc2nc3cc(C(=O)N(CCN)CC4CCCCC4)ccc3n2CC2CCCO2)cc1` (centres unmarked) [Example 354, 2-[2-(4-amidinophenyl)ethyl]-1-(tetrahydrofuran-2-yl-methyl)-benzimidazol-5-yl-carboxylic acid-N-(2-aminoethyl)-N-cyclohexylmethyl-amide], which inhibition at 10 µM is on record?
The inhibition at 10 µM was 58%.

How did the inhibition at 10 µM turn out when `N=C(N)c1ccc(CCc2nc3cc(C(=O)N(CCN)CC4CCCCC4)ccc3n2Cc2cccs2)cc1` [Example 355, 2-[2-(4-amidinophenyl)ethyl]-1-(2-thiophenyl-methyl)-benzimidazol-5-yl-carboxylic acid-N-(2-aminoethyl)-N-cyclohexylmethyl-amide] was run?
The inhibition at 10 µM was 51%.

Which IC50 does the source give for `CCOCCCn1c(CCc2ccc(C(=N)N)cc2)nc2cc(C(=O)N(CCN)CCCc3ccccc3)ccc21` [Example 358, 2-[2-(4-amidinophenyl)ethyl]-1-(3-ethoxypropyl)-benzimidazol-5-yl-carboxylic acid-N-(2-aminoethyl)-N-(3-phenylpropyl)-amide] here?
The IC50 was 0.169 µM.

And the inhibition at 10 µM?
The inhibition at 10 µM was 77%.

How did the inhibition at 10 µM turn out when `CCCCN(CCCC)CCCn1c(CCc2ccc(C(=N)N)cc2)nc2cc(C(=O)N(CCN)CCCc3ccccc3)ccc21` [Example 359, 2-[2-(4-amidinophenyl)ethyl]-1-(3-di-n-butylaminopropyl)-benzimidazol-5-yl-carboxylic acid-N-(2-aminoethyl)-N-(3-phenylpropyl)-amide] was run?
Its inhibition at 10 µM is 59%.

`N=C(N)c1ccc(CCc2nc3cc(C(=O)N(CCN)CCCc4ccccc4)ccc3n2CC2CC2)cc1` [Example 362, 2-[2-(4-amidinophenyl)ethyl]-1-cyclopropylmethyl-benzimidazol-5-yl-carboxylic acid-N-(2-aminoethyl)-N-(3-phenylpropyl)-amide] was tested. Which inhibition at 10 µM did it give?
The inhibition at 10 µM was 74%.

`N=C(N)c1ccc(CCc2nc3cc(C(=O)N(CCN)CCCc4ccccc4)ccc3n2CCCN2CCOCC2)cc1` [Example 369, 2-[2-(4-amidinophenyl)ethyl]-1-[3-(morpholin-4-yl)-propyl]-benzimidazol-5-yl-carboxylic acid-N-(2-aminoethyl)-N-(3-phenylpropyl)-amide] was tested. Which inhibition at 10 µM did it give?
The inhibition at 10 µM was 57%.

With `N=C(N)c1ccc(CCc2nc3cc(C(=O)N(CCN)CCCc4ccccc4)ccc3n2CC2CCCO2)cc1` (centres unmarked) [Example 370, 2-[2-(4-amidinophenyl)ethyl]-1-(tetrahydrofuran-2-yl-methyl)-benzimidazol-5-yl-carboxylic acid-N-(2-aminoethyl)-N-(3-phenylpropyl)-amide] as the compound, how does the inhibition at 10 µM read?
The inhibition at 10 µM was 53%.

For `N=C(N)c1ccc(CCc2nc3cc(C(=O)N(CCN)CCCc4ccccc4)ccc3n2Cc2cccs2)cc1` [Example 371, 2-[2-(4-amidinophenyl)ethyl]-1-(2-thiophenyl-methyl)-benzimidazol-5-yl-carboxylic acid-N-(2-aminoethyl)-N-(3-phenylpropyl)-amide], which inhibition at 10 µM is on record?
Its inhibition at 10 µM is 55%.

For `CCOCCCn1c(CCc2ccc(C(=N)N)cc2)nc2cc(C(=O)N(CCN)Cc3ccc(Cl)cc3)ccc21` [Example 374, 2-[2-(4-amidinophenyl)ethyl]-1-(3-ethoxypropyi)-benzimidazol-5-yl-carboxylic acid-N-(2-aminoethyl)-N-(4-chlorbenzyl)-amide], which “% Inhibition (10 μM)” value is on record?
The value was 62%.

With `CCCCN(CCCC)CCCn1c(CCc2ccc(C(=N)N)cc2)nc2cc(C(=O)N(CCN)Cc3ccc(Cl)cc3)ccc21` [Example 375, 2-[2-(4-amidinophenyl)ethyl]-1-(3-di-n-butylaminopropyl)-benzimidazol-5-yl-carboxylic acid-N-(2-aminoethyl)-N-(4-chlorbenzyl)-amide] as the compound, how does the “% Inhibition (10 μM)” value read?
Its value is 58%.

`N=C(N)c1ccc(CCc2nc3cc(C(=O)N(CCN)Cc4ccc(Cl)cc4)ccc3n2CC2CC2)cc1` [Example 378, 2-[2-(4-amidinophenyl)ethyl]-1-cyclopropylmethyl-benzimidazol-5-yl-carboxylic acid-N-(2-aminoethyl)-N-(4-chlorbenzyl)-amide] was tested. Which “% Inhibition (10 μM)” value did it give?
The value was 52%.

How did the “% Inhibition (10 μM)” value turn out when `Cc1ccccc1N1CCN(CCCn2c(CCc3ccc(C(=N)N)cc3)nc3cc(C(=O)N(CCN)Cc4ccc(Cl)cc4)ccc32)CC1` [Example 384, 2-[2-(4-amidinophenyl)ethyl]-1-{3-[4-(2-methylphenyl)-piperazin-1-yl]-propyl} -benzimidazol-5-yl-carboxylic acid-N-(2-aminoethyl)-N-(4-chlorbenzyl)-amide] was run?
The value was 59%.
